In PMC4059401 (Xenobiotica; the fate of foreign compounds in biological …, 2013):

Legend:
CYP3A4 = CYP3A4 (Homo sapiens, UniProt P08684); test: metabolite formation by recombinant CYP Supersomes, LC/MS; assay type: cell-based
CYP1A2 = CYP1A2 (Homo sapiens, UniProt P05177); test: as above; assay type: cell-based
CYP2D6 = CYP2D6 (Homo sapiens, UniProt P10635); test: UV-visible spectral binding titration, purified enzyme
Sequence of CYP2D6 (P10635 whole entry): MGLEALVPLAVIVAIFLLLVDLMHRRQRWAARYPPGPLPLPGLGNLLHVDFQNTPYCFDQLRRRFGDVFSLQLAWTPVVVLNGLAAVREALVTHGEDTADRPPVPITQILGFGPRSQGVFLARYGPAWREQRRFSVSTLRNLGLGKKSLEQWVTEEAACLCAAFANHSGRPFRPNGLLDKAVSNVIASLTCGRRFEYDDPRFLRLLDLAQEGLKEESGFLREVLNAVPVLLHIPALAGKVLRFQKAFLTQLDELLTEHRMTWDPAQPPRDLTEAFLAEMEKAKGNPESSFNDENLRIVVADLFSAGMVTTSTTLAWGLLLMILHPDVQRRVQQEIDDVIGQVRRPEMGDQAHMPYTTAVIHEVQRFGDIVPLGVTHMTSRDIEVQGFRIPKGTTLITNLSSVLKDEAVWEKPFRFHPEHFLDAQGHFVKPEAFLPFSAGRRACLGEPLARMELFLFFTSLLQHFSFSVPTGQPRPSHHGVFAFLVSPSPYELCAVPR

Sequence of CYP3A4 (P16435 2-677): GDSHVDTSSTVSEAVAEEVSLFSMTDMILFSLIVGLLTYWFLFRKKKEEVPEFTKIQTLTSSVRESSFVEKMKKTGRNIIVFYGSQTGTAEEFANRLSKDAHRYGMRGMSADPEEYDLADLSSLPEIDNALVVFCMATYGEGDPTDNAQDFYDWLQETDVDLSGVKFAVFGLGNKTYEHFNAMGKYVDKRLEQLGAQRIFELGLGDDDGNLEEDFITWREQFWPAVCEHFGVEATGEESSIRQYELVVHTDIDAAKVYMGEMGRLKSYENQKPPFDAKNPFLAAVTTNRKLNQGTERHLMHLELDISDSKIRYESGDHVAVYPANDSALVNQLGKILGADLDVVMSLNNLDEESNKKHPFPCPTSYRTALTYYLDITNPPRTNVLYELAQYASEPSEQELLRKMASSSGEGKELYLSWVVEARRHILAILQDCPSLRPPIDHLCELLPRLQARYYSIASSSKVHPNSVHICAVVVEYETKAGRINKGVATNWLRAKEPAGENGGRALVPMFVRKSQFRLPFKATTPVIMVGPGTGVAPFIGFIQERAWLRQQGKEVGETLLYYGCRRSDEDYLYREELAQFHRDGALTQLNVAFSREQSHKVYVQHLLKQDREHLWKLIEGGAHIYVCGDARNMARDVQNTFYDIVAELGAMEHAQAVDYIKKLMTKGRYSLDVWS
Sequence of CYP3A4 (P08684 2-503): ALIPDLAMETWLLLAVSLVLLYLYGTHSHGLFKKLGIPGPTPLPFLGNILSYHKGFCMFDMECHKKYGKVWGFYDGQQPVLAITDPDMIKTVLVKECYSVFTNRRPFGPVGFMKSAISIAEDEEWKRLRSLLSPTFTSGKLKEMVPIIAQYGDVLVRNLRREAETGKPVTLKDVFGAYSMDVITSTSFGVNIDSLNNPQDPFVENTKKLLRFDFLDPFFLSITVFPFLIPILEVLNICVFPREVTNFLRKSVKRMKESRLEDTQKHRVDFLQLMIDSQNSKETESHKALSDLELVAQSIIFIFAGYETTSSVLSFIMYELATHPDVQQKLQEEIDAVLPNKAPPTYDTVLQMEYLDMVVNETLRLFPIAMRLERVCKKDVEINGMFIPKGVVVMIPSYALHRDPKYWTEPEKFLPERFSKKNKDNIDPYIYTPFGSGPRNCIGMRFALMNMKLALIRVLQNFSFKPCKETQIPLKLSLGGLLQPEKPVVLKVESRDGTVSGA
Sequence of CYP1A2 (P16435 2-677): as the sequence (P16435 2-677) above
Sequence of CYP1A2 (P05177 2-516): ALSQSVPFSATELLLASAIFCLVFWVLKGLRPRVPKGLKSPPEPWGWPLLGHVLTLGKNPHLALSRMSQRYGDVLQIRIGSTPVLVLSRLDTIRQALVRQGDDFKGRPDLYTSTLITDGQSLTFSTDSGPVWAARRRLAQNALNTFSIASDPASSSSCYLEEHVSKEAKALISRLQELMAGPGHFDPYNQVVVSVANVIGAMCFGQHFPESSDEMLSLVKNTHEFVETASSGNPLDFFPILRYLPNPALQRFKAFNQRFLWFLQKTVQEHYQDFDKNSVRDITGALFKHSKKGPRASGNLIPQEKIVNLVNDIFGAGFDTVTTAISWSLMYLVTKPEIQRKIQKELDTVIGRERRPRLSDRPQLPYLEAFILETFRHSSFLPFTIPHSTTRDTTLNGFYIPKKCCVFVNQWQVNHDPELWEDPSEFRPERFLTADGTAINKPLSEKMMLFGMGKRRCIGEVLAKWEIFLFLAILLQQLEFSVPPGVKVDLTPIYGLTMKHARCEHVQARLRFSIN

Question: What does the source list for `CCN(CC)CCNC(=O)c1cc(Cl)c(N)cc1OC` [Metoclopramide, 4-amino-5-chloro-N-(2-(diethylamino)ethyl)-2-methoxybenzamide]?
Answer: metabolite formation by recombinant CYP Supersomes, LC/MS (CYP3A4): All three monooxygenation products (M4a, M4b, M4c) were formed by CYP3A4 and CYP2D6; metabolite formation by recombinant CYP Supersomes, LC/MS (CYP1A2): CYPs 1A2, 2C9, 2C19, and 3A4 also metabolized metoclopramide.; Kd (CYP2D6): 9.56 ± 1.09 µM
